± gives the expanded uncertainty stated by the source.

Consider 1 compound from the NIST ThermoML archive (doi:10.1016/j.jct.2011.04.010).

The nature of the data set: xn = mol fraction of the nth substance listed. The note with it: 101 kPa, Liquid, x2 = 0; for mass density: Vibrating tube method.

Broadly, the speed of sound is the propagation velocity of pressure waves in the medium. As usually defined, the mass density is mass per unit of volume. Consider `CC#N` [acetonitrile] + COCCO, for which the speed of sound (298.15 K, Ecolab MPFU speed of sound meter) was 1279.6 ± 2 m/s. Also, the mass density is, setting by setting: (308.15 K) 765.735 ± 0.13 kg/m3; (318.15 K) 755.763 ± 0.14 kg/m3.
